Data set [1] in a line: In vitro microsomal stability, rat. In kind it is in vitro ADME. The settings on record: rat liver microsomes, 5 μM, 60 min. On the technique in general: Liver microsomes are a subcellular fraction often used to study metabolism.
The nature of data set [2]: In vitro microsomal stability, mouse. In kind it is in vitro ADME. The settings on record: mouse liver microsomes, 5 μM, 60 min.
The target of the next data set is T1, hDGAT2 (Homo sapiens, UniProt Q96PD7).
T1 sequence (Q96PD7 1-388): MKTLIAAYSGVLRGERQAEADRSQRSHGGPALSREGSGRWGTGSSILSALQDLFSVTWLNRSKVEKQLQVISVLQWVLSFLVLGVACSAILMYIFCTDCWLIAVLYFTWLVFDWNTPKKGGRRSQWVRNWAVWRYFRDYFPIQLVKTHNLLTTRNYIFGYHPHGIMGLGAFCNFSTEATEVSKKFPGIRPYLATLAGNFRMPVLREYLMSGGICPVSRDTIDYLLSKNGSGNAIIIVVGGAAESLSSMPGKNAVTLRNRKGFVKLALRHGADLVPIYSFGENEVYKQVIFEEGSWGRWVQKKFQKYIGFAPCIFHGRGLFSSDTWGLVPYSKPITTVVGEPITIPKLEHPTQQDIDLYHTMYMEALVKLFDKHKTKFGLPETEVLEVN
Nature of the data set: Enzymatic assay hDGAT2. In kind it is biochemical. The source says: ACATs have sequence homology to DGAT-1 and play essential roles in cholesterol homeostasis. 17b was not explored in the enzymatic assays due to its poor pharmacokinetic profile.

A further data set concerns plasma TAG level. Put plainly: Oral lipid tolerance test (OLTT), dog. In kind it is in vivo, Beagle dogs. The settings on record: dogs, 17a 1 mg/kg po, n = 2. How it is done:
Beagle dogs (9 months old, n = 2/group) were obtained from Woojung Bio Inc. (Republic of Korea) were fasted for 16 h and received heavy cream (2.7 mL/kg), glucose (1 g/kg), water (5.3 mL/kg), and acetaminophen (20 mg/kg p.o.) 1 h after compound administration. Blood samples were collected at –0.5, 0, 1, 2, and 4 h.
To determine in vivo efficacy, we evaluated the activity of 17a against serum TAG level induced by the oral administration of corn oil (oral lipid tolerance test, OLTT; Figures 3 and 4), since intestinal targeted DGAT-1 inhibition results in a reduced serum TAG level. 17a was orally administered to ICR mice at 3 mg/kg or to dogs at 1 mg/kg before administration of corn oil.
Figure 4. Effect of 17a in a canine oral lipid tolerance test (n = 2, *p < .05; ***p < .001). The dog was treated with 17a (po. 1 mg/kg) or 2 (po. 1 mg/kg) before oral administration of corn oil. Vehicle for 2: 0.5% methylcellulose/0.5% Tween80 in distilled water, vehicle for 17a: 0.5% Tween80 in distilled water.

Data set [3] deals with T2, human recombinant DGAT1 enzyme expressed in insect cells (SF9 cells) (Homo sapiens, UniProt O75907).
T2 construct: made in house; host or cells: SF9 insect cells (microsomal membrane fraction)
T2 sequence (O75907 1-488): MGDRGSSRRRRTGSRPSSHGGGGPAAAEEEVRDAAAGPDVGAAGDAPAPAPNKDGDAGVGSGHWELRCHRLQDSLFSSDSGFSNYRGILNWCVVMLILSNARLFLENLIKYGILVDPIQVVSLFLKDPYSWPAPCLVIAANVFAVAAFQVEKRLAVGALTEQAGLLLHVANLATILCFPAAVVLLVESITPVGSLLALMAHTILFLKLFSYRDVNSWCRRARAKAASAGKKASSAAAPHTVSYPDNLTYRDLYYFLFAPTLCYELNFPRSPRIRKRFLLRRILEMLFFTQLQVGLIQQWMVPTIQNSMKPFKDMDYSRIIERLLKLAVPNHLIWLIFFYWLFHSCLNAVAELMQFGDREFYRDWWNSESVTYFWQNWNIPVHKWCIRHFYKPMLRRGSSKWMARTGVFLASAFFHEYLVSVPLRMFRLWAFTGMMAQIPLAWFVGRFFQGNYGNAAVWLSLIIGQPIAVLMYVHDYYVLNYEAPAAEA
Nature of the data set: DGAT-1 inhibition assay (IC50), SF9 microsomes. The data set is classed as biochemical. The settings on record: SF9 insect cells expressing human DGAT-1. How it is done: The activity of DGAT-1 inhibitors in vitro was evaluated by using a human recombinant DGAT1 enzyme expressed in insect cells (SF9 cells). SF9 cells were homogenised by washing them with DPBS (Dulbecco’s phosphate-buffered saline) and then suspending cell pellets with a tris buffer (250 mM sucrose; 10 mM Tris-HCl [pH 7.4]; proteinase inhibitor). The resulting mixture was centrifugally separated at 10,000 × g for 30 min to remove the cell debris remaining in the lower layer thereof, and was centrifugally separated at 100,000 × g for 60 min to obtain a microsomal membrane. Further, membrane fractions were resuspended by the tris buffer, and then stored at -80 °C.
The activity of DGAT1 was measured according to the reported method. Specifically, 0.0001 – 10 μΜ (final concentration, FC) of the test compounds were cultured at room temperature (25 °C) for 15 min with a […] of SF9 microsomal protein solution and 100 mM of MgCl2 solution, and were then further cultured at room temperature (25 °C) for 30 min after the addition of 100 μΜ (FC in 12.5% EtOH) of 1,2-dioleyl-sn-glycerol and 30 μΜ (final conc.) of [14]C-oleyl coenzyme A. The reaction was completed by the addition of 300 μL of a mixed solution of 2-propanol/heptane (7:1), and radioactive triglyceride was separated from an organic solvent layer by using 200 μL of heptane and 200 μL of a 0.1 M carbonate buffer (pH 9.5). The amount of triglyceride was measured by liquid scintillography (Perkin Elmer, USA) after mixing with an organic solvent and an equivalent amount of scintillation solvent (MicroScint-O, Perkin Elmer, USA). The effects of inhibiting DGAT1 were calculated as percent in comparison with a control material.
The activities of synthesised compounds were evaluated using SF9 insect cells expressing human DGAT-1[22]. A potent DGAT-1 inhibitor, LCQ-908 (2 or pradigastat) was used as a positive control. […] The calculated lowest energy conformation model of 14c provided that the distance between the terminal carboxylic acid and NH of urea was over 16 Å, which may result in reduced activity. […]

Data set [4] in a line: Pharmacokinetic profile in ICR mice. The settings on record: mouse, in vivo.

SMILES strings stand for the structures.

For the molecule `O=C([O-])C[C@H]1CC[C@@H](c2csc3c(-c4ccc(NC(=O)Nc5cccc(Cl)c5)cc4)ncnc32)CC1.[Na+]` [Compound 17a, Sodium cis-2–(4–(4-(4-(3–(3-chlorophenyl)ureido)phenyl)thieno[3,2-d]pyrimidin-7-yl)cyclohexyl)acetate], the “Microsomal stability, remaining percent” value in data set [1] stood at 87%; in data set [2], 82%. In addition, the IC50 at hDGAT2 is over 10000 nM; in data set [3], 74 nM. In the data set with plasma TAG level, the “Reduction of TAG in OLTT” value is recorded as “significant reduction of TAG”. The molecule also came in with a bioavailability in data set [4] (oral 10 mg/kg vs iv 3 mg/kg) of 19%. The same molecule came in with a Cmax in data set [4] (oral 10 mg/kg, n = 3) of 479 ng/mL. In data set [4] (oral 10 mg/kg, n = 3), the half-life was 1.2 h. In addition, in data set [4] (oral 10 mg/kg, n = 3, read-out: AUC 0∼24), the AUC stood at 861 ng·h/mL.

One may read the IC50 as the concentration that inhibits the measured activity by half. By bioavailability is commonly meant dose-corrected exposure relative to a reference, in per cent. By Cmax is commonly meant the peak of the concentration-time curve. The half-life is the time in which the quantity being followed falls by half. A higher half-life goes with slow loss. For orientation: AUC means the area under the concentration-time curve, a measure of exposure.

(Values after article PMC6882492, “Synthesis and biological evaluation of novel thienopyrimidine derivatives as diacylglycerol acyltransferase 1 (DGAT-1) inhibitors” (Journal of Enzyme Inhibition and Medicinal Chemistry, 2019).)
